Test results as given in patent US6756389B2, “Pharmaceutically active compounds and methods of use” (Cambridge Neuroscience, Inc., priority 1996, dated 2004).
Structures can show the parent of a compound that is named as a salt.

Tests used:
[1] = system: DBA/2 mice (audiogenic seizures); experiment: In vivo anticonvulsant activity in the DBA/2 mouse model (mouse audiogenic assay); conditions: 10 mg/kg intraperitoneally 30 minutes prior to auditory stimulus (12 KHz sine wave, 110-120 db, 60 seconds), inhibition relative to vehicle controls
Protocol: As discussed above, preferred compounds of the invention are active in a standard anticonvulsant in vivo audiogenic test, such as the audiogenic mouse assay of Example 6 which follows, where DBA/2 mice about 20-23 days old are injected intraperitoneally with a test compound 30 minutes prior to being placed in a bell jar with exposure to auditory stimulus of 12 KHz sine wave at 110-120 db. References herein in vivo “audiogenic assay” are intended to refer to that protocol. […] As discussed above, activity in the audiogenic assay has been recognized as indicative that a test compound has neuroprotective properties. See, e.g., M. Tricklebank et al., European Journal of Pharmacology, supra; T. Seyfried, Federation Proceedings, supra.
Compounds were tested for their effectiveness in preventing seizures in DBA/2 mice which have a unique sensitivity to auditory stimulation. Exposure to loud high-frequency sounds can trigger seizure activity in these animals. […]
Mice were injected intraperitoneally with the compound specified in Table I below or with vehicle control, 30 minutes prior to being placed in a bell jar and turning on the auditory stimulus (12 KHz sine wave at 110-120 db). […] The auditory stimulus was left on for 60 seconds and mice reactions were timed and recorded. Percentage inhibition was determined with reference to vehicle controls.

Row | SMILES | melting point [°C] | Audiogenic Response % Inhib. [1] [%]
1 | Cl.N=C(N)N1[C@@H](c2ccccc2)CC[C@H]1c1ccccc1 | 242 to 244 | 
2 | Cl.N=C(Nc1ccccc1)N1[C@@H](c2ccccc2)CCC[C@H]1c1ccccc1 | 82 to 84 | 
3 | Cc1ccc([C@H]2CCC[C@H](c3ccc(C)cc3)N2C(=N)N)cc1.Cl | 120 | 
4 | CC(C)c1ccc([C@H]2CCC[C@@H](c3ccc(C(C)C)cc3)N2C(=N)N)cc1.Cl [Example 2, N-carboximidamide-r-2,c-6-di(4-isopropylphenyl)piperidine] | 197 to 199 | 69
5 | Cc1ccc([C@H]2CCC[C@@H](c3ccc(C)cc3)N2C(=N)N)cc1 [Example 1, N-carboximidamide-r-2, c-6-di(4-methylphenyl)piperidine] |  | 42
6 | Cc1ccc([C@H]2CCC[C@@H](c3ccc(C)cc3)N2C(=N)N)cc1 (as salt: mesylate) [Example 1, N-carboximidamide-r-2, c-6-di(4-methylphenyl)piperidine] | 183 to 185 | 
